From US20230130403A1, “METHODS OF TREATMENT WITH S1P RECEPTOR MODULATORS” (PRIOTHERA SAS, priority 2021, published 2023)

Tests used:
[1] = system: peripheral lymphocyte counts; experiment: Recovery of absolute lymphocyte counts after S1P modulator dosing in healthy volunteers; type: in vivo, human; conditions: single 1 mg FTY720, BAF312 multiple doses for 28 days, single 3 mg KRP203
Experimental: Mocravimod is particularly preferred. […] A measurable parameter that determines maintenance of the mode of action, i.e., sequestering of lymphocytes in secondary lymphoid organs and bone marrow, is reduction of peripheral lymphocyte counts. Recovery of absolute lymphocyte counts to 80% of normal counts after a single 1 mg dose of FTY720, multiple dose applications of BAF312 for 28 days, or a single 3 mg dose of KRP203 was reached after 8, 7 and more than 10 days, respectively.

S1PR1 versus S1PR3-5 = conditions: cited from earlier work
[2] = system: acute GVHD after allogeneic HSCT; conditions: preclinical; cited from earlier work
[3] = Tissue distribution of [14C]KRP203 radioactivity in Wistar rats; type: in vivo, rat
Description: Highly exposed tissues were liver and to a smaller extent kidney, small intestine, adrenal gland, lungs, spleen and mesenteric lymph nodes.

[4] = Pharmacokinetics of [14C]KRP203 radioactivity in dogs; type: in vivo, dog; conditions: oral administration
Plasma protein binding = type: in vitro ADME; conditions: human plasma
[5] = Pharmacokinetics of [14C]KRP203 radioactivity in rats; type: in vivo, rat
Description: Following intravenous administration of [14C]KRP203, radioactivity was readily distributed to rat and dog tissues with similar volume of distribution (Vss=8.0 L/kg in rat).

[6] = Plasma toxicokinetics in dog
S1P5 = S1P5 (Homo sapiens, UniProt Q9H228); experiment: S1P receptor agonism on S1P5; type: biochemical
Description: (§1) KRP203 (mocravimod) is an immunomodulator that selectively targets sphingosine 1-phosphate (S1P) receptors via its phosphorylated active metabolite. […] The therapeutic effects are believed to be due to the prevention of effector lymphocyte recirculation from lymphatic tissue to susceptible target organs such as the gut, skin or CNS.

[7] = In vivo plasma ratio of phosphorylated KRP203 to KRP203 in rat
Experimental: (§2) The in vivo ratio of phosphorylated KRP203 to KRP203 in plasma was up to 45 in rat. As the metabolic activities on KRP203 in human blood and hepatocytes were lower than those of other species, the metabolic clearance of KRP203 in man is expected be lower than that in rat and dog. […] KRP230 formed low amounts of covalent drug-protein adducts in human hepatocytes in vitro. Due to the low levels detected ([…] at 3 hours) in-vitro adduct formation is unlikely to be associated with clinical relevant findings at low dose levels (e.g. below 10 mg).

[8] = system: human cytochrome P450 isoenzymes; experiment: Inhibition of cytochrome P450 isoenzymes in vitro; type: in vitro ADME
Experimental: as §2
The weak inhibitory effect of ciclosporin on hepatic CYP3A4 is unlikely to relevantly impact the PK of KRP203.

[9] = In vitro metabolite profile in human hepatocytes; type: in vitro ADME
hERG channels = hERG channels (Homo sapiens, UniProt Q12809); experiment: hERG channel inhibition in vitro; type: biochemical; conditions: up to the highest concentration tested, 3 μM
Description: (§3) Based on the available in vitro and in vivo data, except for the potential to cause a negative chronotropic effect and some mild increase in blood pressure, there is no indication that KRP203 would cause arrhythmia or QT prolongation in man.

hS1P3 = hS1P3 (Homo sapiens, UniProt Q99500); experiment: S1P receptor agonism on S1P3; type: biochemical
Description: as §1

[10] = system: guinea pig papillary muscle preparation; experiment: APD in guinea pig papillary muscle preparation; conditions: concentrations of 3 μM
Description: as §3

[11] = molecular target: CYP3A4 via the human PXR receptor (Homo sapiens, UniProt O75469); experiment: CYP3A4 induction via PXR; type: in vitro ADME
S1P1 [12] = molecular target: T1, S1P1 (Homo sapiens, UniProt P21453); experiment: S1P receptor agonism on S1P1; type: biochemical
Description: as §1

[13] = Plasma toxicokinetics in rat
chromosome aberration = experiment: In vitro genotoxicity: chromosome aberration; type: cell-based
S1P1 [14] = molecular target: T1, S1P1; experiment: S1P1 internalization; type: cell-based
Description: KRP203 reduces lymphocyte counts in peripheral blood by more than 80%.

S1P4 = S1P4 (Homo sapiens, UniProt O95977); experiment: S1P receptor agonism on S1P4; type: biochemical
Description: as §1

bacterial mutation = experiment: In vitro genotoxicity: bacterial mutation; type: cell-based
[15] = system: GPCRs, ion channels, transporters, nuclear receptors and enzymes; experiment: Off-target binding assays; conditions: compared to estimated free plasma concentration at 3 mg/day
Description: Thus it is unlikely that secondary pharmacology effects should arise due to non-specific receptor activation at therapeutic doses.

T1 sequence (P21453 whole entry): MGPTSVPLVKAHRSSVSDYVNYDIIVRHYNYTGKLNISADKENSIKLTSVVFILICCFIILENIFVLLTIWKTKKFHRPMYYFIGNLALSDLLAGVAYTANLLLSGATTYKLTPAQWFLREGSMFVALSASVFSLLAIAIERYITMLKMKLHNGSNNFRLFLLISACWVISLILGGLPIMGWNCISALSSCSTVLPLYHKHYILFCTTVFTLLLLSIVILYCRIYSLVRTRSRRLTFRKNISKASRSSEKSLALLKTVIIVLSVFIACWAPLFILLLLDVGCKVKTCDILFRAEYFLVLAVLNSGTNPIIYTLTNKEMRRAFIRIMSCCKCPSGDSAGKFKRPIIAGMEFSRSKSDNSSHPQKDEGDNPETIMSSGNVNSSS
CYP3A4 via the human PXR receptor, sequence (O75469 whole entry): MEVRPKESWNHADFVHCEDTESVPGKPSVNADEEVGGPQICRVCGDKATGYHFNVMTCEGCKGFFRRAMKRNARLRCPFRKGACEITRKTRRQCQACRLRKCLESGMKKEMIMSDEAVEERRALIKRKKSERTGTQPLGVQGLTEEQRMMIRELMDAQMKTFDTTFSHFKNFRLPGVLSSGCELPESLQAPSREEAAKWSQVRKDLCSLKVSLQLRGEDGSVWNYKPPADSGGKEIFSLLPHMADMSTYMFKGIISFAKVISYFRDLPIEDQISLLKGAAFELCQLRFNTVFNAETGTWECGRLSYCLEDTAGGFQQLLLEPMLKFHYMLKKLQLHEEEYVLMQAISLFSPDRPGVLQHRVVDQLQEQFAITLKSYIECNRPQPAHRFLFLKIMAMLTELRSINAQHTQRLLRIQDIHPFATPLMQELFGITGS
hS1P3, sequence (Q99500 whole entry): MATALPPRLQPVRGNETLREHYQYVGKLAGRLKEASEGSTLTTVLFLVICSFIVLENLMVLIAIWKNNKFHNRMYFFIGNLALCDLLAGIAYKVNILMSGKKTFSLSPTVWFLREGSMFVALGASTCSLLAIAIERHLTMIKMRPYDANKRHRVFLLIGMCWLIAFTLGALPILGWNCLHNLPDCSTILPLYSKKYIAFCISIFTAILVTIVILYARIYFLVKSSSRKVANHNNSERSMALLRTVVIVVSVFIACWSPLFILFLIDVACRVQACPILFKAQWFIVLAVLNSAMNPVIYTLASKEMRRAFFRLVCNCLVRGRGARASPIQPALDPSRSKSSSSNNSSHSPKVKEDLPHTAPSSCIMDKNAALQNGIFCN
S1P5, sequence (Q9H228 whole entry): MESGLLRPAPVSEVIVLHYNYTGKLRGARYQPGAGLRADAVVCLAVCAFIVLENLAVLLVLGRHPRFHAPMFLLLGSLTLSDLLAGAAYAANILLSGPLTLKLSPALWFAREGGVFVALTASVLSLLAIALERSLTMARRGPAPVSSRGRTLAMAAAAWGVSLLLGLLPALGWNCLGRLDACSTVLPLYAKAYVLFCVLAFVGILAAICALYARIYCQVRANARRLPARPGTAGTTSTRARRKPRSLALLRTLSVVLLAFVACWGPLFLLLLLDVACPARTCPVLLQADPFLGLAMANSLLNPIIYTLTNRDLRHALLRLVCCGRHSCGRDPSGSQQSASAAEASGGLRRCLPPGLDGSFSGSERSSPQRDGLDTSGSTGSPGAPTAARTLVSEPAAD
S1P4, sequence (O95977 whole entry): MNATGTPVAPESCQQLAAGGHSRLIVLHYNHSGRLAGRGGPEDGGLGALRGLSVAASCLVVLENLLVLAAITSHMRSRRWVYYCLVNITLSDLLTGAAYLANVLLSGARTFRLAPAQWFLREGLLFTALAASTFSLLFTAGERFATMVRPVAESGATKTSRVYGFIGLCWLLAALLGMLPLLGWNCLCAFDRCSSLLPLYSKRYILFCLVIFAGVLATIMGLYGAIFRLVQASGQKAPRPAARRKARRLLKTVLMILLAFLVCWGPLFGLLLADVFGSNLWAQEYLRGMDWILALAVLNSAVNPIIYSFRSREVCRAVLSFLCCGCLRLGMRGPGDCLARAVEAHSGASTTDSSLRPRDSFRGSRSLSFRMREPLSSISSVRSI
hERG channels, sequence (Q12809 whole entry): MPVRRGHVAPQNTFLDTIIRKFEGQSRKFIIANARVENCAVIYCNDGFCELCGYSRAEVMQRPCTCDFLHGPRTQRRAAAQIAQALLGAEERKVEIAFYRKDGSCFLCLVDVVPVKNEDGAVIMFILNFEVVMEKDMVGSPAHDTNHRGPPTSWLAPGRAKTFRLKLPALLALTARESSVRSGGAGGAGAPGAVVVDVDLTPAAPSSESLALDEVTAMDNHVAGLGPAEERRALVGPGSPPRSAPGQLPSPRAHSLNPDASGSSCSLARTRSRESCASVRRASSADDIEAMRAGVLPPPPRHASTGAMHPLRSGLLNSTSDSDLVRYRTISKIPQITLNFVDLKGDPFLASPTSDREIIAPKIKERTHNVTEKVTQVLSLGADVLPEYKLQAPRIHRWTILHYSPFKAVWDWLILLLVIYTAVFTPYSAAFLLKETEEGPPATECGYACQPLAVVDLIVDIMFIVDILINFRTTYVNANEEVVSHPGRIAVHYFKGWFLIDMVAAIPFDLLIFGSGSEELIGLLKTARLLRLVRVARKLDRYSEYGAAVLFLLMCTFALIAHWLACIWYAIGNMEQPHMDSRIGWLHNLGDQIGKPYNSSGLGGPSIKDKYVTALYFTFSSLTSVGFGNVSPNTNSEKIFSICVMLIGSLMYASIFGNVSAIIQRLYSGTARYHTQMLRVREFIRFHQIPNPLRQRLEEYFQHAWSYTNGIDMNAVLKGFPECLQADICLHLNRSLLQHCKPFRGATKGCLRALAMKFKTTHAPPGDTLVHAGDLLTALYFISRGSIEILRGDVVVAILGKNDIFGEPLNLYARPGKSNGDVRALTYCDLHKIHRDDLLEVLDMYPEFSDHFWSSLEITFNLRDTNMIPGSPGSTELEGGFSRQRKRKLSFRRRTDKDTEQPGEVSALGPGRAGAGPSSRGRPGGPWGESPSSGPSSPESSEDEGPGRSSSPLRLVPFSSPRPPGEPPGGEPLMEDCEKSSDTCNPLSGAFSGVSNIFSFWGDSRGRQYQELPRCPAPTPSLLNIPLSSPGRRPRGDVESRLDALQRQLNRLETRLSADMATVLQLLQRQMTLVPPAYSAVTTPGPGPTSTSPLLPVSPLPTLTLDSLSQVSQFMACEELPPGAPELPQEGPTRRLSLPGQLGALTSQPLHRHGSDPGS

For `CCc1cc(/C(C)=N/OCc2ccc(C3CCCCC3)c(C(F)(F)F)c2)ccc1CN1CC(C(=O)O)C1` [BAF312], the “Recovery of absolute lymphocyte counts to 80% of normal counts” value [1] was 7 days.

In the case of `CCCCCCCCc1ccc(CCC(N)(CO)CO)cc1` [FTY720], the “Recovery of absolute lymphocyte counts to 80% of normal counts” value [1] is listed as 8 days, the S1P receptor selectivity (S1PR1 versus S1PR3-5) is listed as “poor selectivity for S1PR1 versus S1PR3-5” and the “effect on acute GVHD” value [2] is listed as “ameliorate acute GVHD”.

With `NC(CO)(CO)CCc1ccc(Sc2cccc(OCc3ccccc3)c2)cc1Cl` [[14C]KRP203] the “total radioactivity in brain relative to plasma” value ([3]; 14-day multiple oral dose 0.5 mg/kg/day) was “accumulated more in brain relative to plasma and eliminated much slower”, the “radioactivity in CNS tissues (cerebrum, cerebellum and medulla oblongata) versus plasma” value ([3]; until 24 h post-dose after single administration) was “lower than in plasma” and the “radioactivity Tmax” value [4] was 9.3 h. For the same molecule, the fraction unbound (Plasma protein binding) was under 0.01, the “volume of distribution Vss” value ([5]; intravenous administration, rat) was 8.0 L/kg and the “radioactivity Tmax” value ([5]; oral administration, male rats) was 7 h.

With KRP203-phosphate the “KRP203-phosphate/KRP203 ratio (based on AUC0-24 h)” value [6] was 1.4-6.6, the “accumulation after repeated dosing (4 and 13 weeks)” value [6] was “no evidence of accumulation” and the “proportionality between exposure and dose” value ([6]; single and multiple doses (4 and 13 weeks)) was “trend for an under proportionality at all dose levels”. For the same molecule, the agonist activity (S1P5) was “potent but partial agonist”, the “in vivo ratio of phosphorylated KRP203 to KRP203 in plasma” value [7] was “up to 45” and the “effect on cytochromes P450 enzymes and transporters” value [8] was “lack of effect”. For the same molecule, the “metabolite abundance in human hepatocytes” value [9] was “among the more prominent metabolites”, the “effects on hERG channels” value (hERG channels) was “did not show significant effects” and the agonist activity (hS1P3) was “potent but partial agonist”. The APD prolongation [10] was “No APD prolongation”, the “no significant induction of CYP3A4 via the human PXR receptor up to concentration” value [11] was at most 50 µM and the agonist activity (S1P1 [12]) was “potent agonist”. The “KRP203-phosphate/KRP203 ratio (based on AUC0-24 h)” value [13] was 10.9-19.1, the “proportionality between exposure and dose” value ([13]; single and multiple administrations) was “apparent proportionality between exposure and dose” and the genotoxic potential (chromosome aberration) was “no evidence for a genotoxic potential”. The “internalization of the S1P1” value (S1P1 [14]) was “long-lasting and complete internalization”, the agonist activity (S1P4) was “potent agonist” and the genotoxic potential (bacterial mutation) was “no evidence for a genotoxic potential”. For the same molecule, the “safety margins in off-target binding assays” value [15] was “large safety margins”.
